Measured values reported in patent publication US4705788A, “Novel antibacterial 7-amino-1(substituted cyclopropyl)-1,4-dihydro-4-oxo-3-quinolinecarboxylic acids” (Bayer Aktiengesellschaft, priority 1985, dated 1987).
Converted amounts (≈) assume the structure as drawn.

How the values were obtained:
Test in all cases: MIC, agar dilution test (Isosensitest medium), Denley multipoint inoculator
Format in all cases: cell-based
E. coli A 261 = details: Escherichia coli, A261, strain E. coli A 261
Text: (§1) Agar dilution test (Isosensitest medium); Denley multipoint inoculator

E. coli Neumann = details: Escherichia coli, strain E. coli Neumann
Text: as §1

E. coli T 7 = details: Escherichia coli, T7, strain E. coli T 7
Text: as §1

Klebsiella 8085 = details: strain Klebsiella 8085
Text: as §1

SMILES	MIC (E. coli A 261) [µg/mL]	MIC (E. coli Neumann) [µg/mL]	MIC (E. coli T 7) [µg/mL]	MIC (Klebsiella 8085) [µg/mL]
CC1(n2cc(C(=O)O)c(=O)c3cc(F)c(N4CCNCC4)cc32)CC1 [Example 1, 6-fluoro-1,4-dihydro-1-(1-methylcyclopropyl)-4-oxo-7-(1-piperazinyl)-3-quinolinecarboxylic acid]	≤ 0.015	0.06 (≈ 0.174 µM)	≤ 0.015	0.03 (≈ 0.0869 µM)
CC1CN(c2cc3c(cc2F)c(=O)c(C(=O)O)cn3C2(C)CC2)CCN1 (stereo not drawn) [Example 3]	0.03 (≈ 0.0835 µM)	0.06 (≈ 0.167 µM)	0.03 (≈ 0.0835 µM)	0.06 (≈ 0.167 µM)
CCn1cc(C(=O)O)c(=O)c2cc(F)c(N3CCNCC3)cc21 [Norfloxacin, reference compound]	0.03 (≈ 0.0939 µM)	0.06 (≈ 0.188 µM)	0.06 (≈ 0.188 µM)	0.125 (≈ 0.391 µM)
